Experimental findings from a melting point compilation (Tetko et al.) are described below.

For orientation: melting point means the temperature, or range, at which the solid turns liquid.

`CS(=O)(=O)C1CS(=O)(=O)CC1O` (centres undefined) returned a melting point of 200 to 210 °C. Turning to `O=C1CCCCC1Cl` (centres undefined), the melting point was determined as 23 °C. Regarding `O=C(c1ccc([N+](=O)[O-])cc1)c1noc(-c2ccc([N+](=O)[O-])cc2)c1S(=O)(=O)c1ccccc1`, the melting point came out at 133 °C. For `CC(=O)Nc1ccc(S(=O)(=O)Cl)cc1Cl`, the melting point is 143 to 145 °C.

In turn, `CCCCCCCCCC(C)CC` (centres undefined) yielded a melting point of -53 °C.

Turning to `CC(C)(C)OC(=O)N[C@]1(C(=O)O)C[C@@H]1c1ccccc1`, the melting point was 180 to 182 °C. As to `Oc1ccc(Cl)cc1Cc1cc(Cl)ccc1O`, the melting point came to 178 °C. On to `NC(=S)Nc1ccccc1C(F)(F)F`, for which the melting point is 158 to 159 °C.

`Fc1cc(Br)ccc1-c1ccccc1` displayed a melting point of 40 °C. The result for `O=Cc1cc(C#Cc2ccccc2)cs1` reads 115 to 118 °C; that for `COc1cccc(O)c1C=O`, 71 °C; that for `OC(CNc1ccccn1)c1ccccc1` (centres undefined), 83.5 °C. The compound `O=C(c1ccc2ccccc2c1)c1noc(-c2ccc(Cl)cc2)c1S(=O)(=O)c1ccccc1` had a melting point of 165 °C. `CC(=O)c1ccc(C#N)c(S)n1` had a melting point of 210 °C.

Turning to `Oc1cc(Br)cc(Br)c1`, the melting point amounted to 81 °C. With `Brc1ccc2ncsc2c1`, the melting point was 53 to 54 °C. The compound `Cc1oc(C)c(S(=O)(=O)NCc2cccs2)c1C(=O)O` had a melting point of 167 to 169 °C. Regarding `Cc1c(Cc2c(C)n(C)n(-c3ccccc3)c2=O)c(=O)n(-c2ccccc2)n1C`, the melting point stood at 155 °C. `c1ccc2c(c1)c1ccccc1n2CC1CO1` (centres undefined) had a melting point of 110 to 112 °C. With `CCC(=O)NC`, the melting point was -30.9 °C. Compound `CCC1NC(C(=O)O)CS1` (mixture of isomers) yielded a melting point of 158 to 162 °C. As for `CC1(C)OC(=O)C(=Cc2ccc(Cl)cc2Cl)C(=O)O1`, the melting point came to 156 °C. The result for `CC12CC3(C)CC(C)(C1)CC(Br)(C2)C3` reads 101 to 102 °C; that for `Clc1ccc2cc(Cl)ccc2c1`, 140 °C. `Fc1c(F)c(F)c(I)c(F)c1F` had a melting point of -29 °C. `COC(=O)c1sccc1N`: the melting point fell in the range of 66 to 67 °C. Turning to `CC(C)(C)NCC(O)c1ccc(O)c(CO)c1` (centres undefined), the melting point came out at 154 °C. On to `C1CCC(CCC2CCCCC2)CC1`, for which the melting point stood at 11.5 °C. With `COc1ccc2c(=O)c(C)c(-c3ccccc3)oc2c1CN(C)C`, the melting point is 110 °C. Next, `O=C(O)CCc1cccc(Cl)c1`: 72 to 74 °C; `Nn1cnc2c(c(Br)nn2C2CCCCC2)c1=O`: 253 to 254 °C.

In turn, `Cc1ncc(COP(=O)(O)O)c(C=O)c1O` came in with a melting point of 255 °C. For the compound `COc1c(Cl)ccc(Cl)c1C(=O)O`, the melting point was 115 °C. Consider `CC1=NNC(=O)C1=NNc1cccc(F)c1`, for which the melting point stood at 218 °C. `CC(=O)Oc1ccc2ccc(OC(C)=O)cc2c1` displayed a melting point of 131 °C.

Turning to `C=CCC1(CC(=C)Br)C(=O)NC(=O)NC1=O`, the melting point stood at 168 °C. Next, `C[Si](C)(C)N([Si](C)(C)C)[Si](C)(C)C`: 67 to 69 °C. `O=c1[nH]nc(-c2ccccc2)c2ccccc12`: the melting point worked out at 240 °C. Next, `Cc1ccc([N+](=O)[O-])c(N)n1`: 146 to 150 °C. `Cc1nc2scc(-c3ccccc3)c2c(=O)n1NC(=O)c1cccc(C(F)(F)F)c1` had a melting point of 134 to 138 °C. `COc1ccccc1-c1nnc2n1CN(c1ccccc1C)CS2` gave a melting point of 239 to 240 °C. As for `c1ccc(Oc2ccc(Oc3ccccc3)cc2)cc1`, the melting point was in the range of 73 to 77 °C. The result for `Cc1ccc(O)c(I)n1` reads 195 to 201 °C.

The compound `CCC(C)I` (centres undefined) returned a melting point of -104 °C.
